For the experiment, the target named is BIR3 domain of XIAP (Homo sapiens (Human), UniProt P98170). Nature of the experiment: TR-FRET assay for BIR3 (inhibition of binding to Peptide A). The conditions noted are these: 6x His-tagged BIR3 domain (aa 241-356 of XIAP), 20 nM Peptide A, 10 concentrations. The method, then:
TR-FRET Assay for BIR2 and BIR3
Percentage of inhibition at each concentration was determined to generate an IC50 value for each test compound.

Structures can show the parent of a compound that is named as a salt.

Chain of BIR3 domain of XIAP (P98170 other isoform, or with tags, fused parts or gaps): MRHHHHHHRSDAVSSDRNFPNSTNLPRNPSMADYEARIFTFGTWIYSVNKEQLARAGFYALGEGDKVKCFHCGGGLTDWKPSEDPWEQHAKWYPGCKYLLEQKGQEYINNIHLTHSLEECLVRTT

One may read the IC50 as the concentration that inhibits the measured activity by half. Compound `CN[C@@H](C)C(=O)N[C@H]1CCc2ccccc2N(Cc2c(C)c(C)cc(C)c2C)C1=O` [Example 47ll, (S)-2-Methylamino-N—[(S)-2-oxo-1-(2,3,5,6-tetramethyl-benzyl)-2,3,4,5-tetrahydro-1H-benzo[b]azepin-3-yl]-propionamide hydrochloride] displayed a 50% inhibitory concentration (IC50) of more than 57.6 µM.

`CN[C@@H](C)C(=O)N[C@H]1CCc2ccccc2N(Cc2ccc(CCc3ccccc3)c3ccccc23)C1=O` [Example 49h, (S)-2-Methylamino-N—[(S)-2-oxo-1-(4-phenethyl-naphthalen-1-ylmethyl)-2,3,4,5-tetrahydro-1H-benzo[b]azepin-3-yl]-propionamide hydrochloride] showed an IC50 of more than 54 µM.

As for `CN[C@@H](C)C(=O)N[C@H]1CCc2ccccc2N(Cc2c(OC)ccc3cc(Cc4ccccc4)ccc23)C1=O` [Example 49i, (S)—N—[(S)-1-(6-Benzyl-2-methoxy-naphthalen-1-ylmethyl)-2-oxo-2,3,4,5-tetrahydro-1H-benzo[b]azepin-3-yl]-2-methylamino-propionamide hydrochloride], the IC50 is more than 54.8 µM.

`CN[C@@H](C)C(=O)N[C@H]1CCc2ccccc2N(Cc2cccc3c(Cc4ccccc4)cccc23)C1=O` [Example 49k, (S)—N—[(S)-1-(5-Benzyl-naphthalen-1-ylmethyl)-2-oxo-2,3,4,5-tetrahydro-1H-benzo[b]azepin-3-yl]-2-methylamino-propionamide hydrochloride] gave a concentration for half-maximal inhibition (IC50) of more than 54.8 µM.

For the compound `CN[C@@H](C)C(=O)N[C@H]1CCc2ccccc2N(Cc2ccc(C3CC3)c3ccccc23)C1=O` [Example 49m, (S)—N—[(S)-1-(4-Cyclopropyl-naphthalen-1-ylmethyl)-2-oxo-2,3,4,5-tetrahydro-1H-benzo[b]azepin-3-yl]-2-methylamino-propionamide hydrochloride], the IC50 was more than 54.8 µM.

For the compound `CN[C@@H](C)C(=O)N[C@H]1CCc2ccccc2N(Cc2cccc3c(CN4CCNCC4)cccc23)C1=O` [Example 49n, (S)-2-Methylamino-N—[(S)-2-oxo-1-(5-piperazin-1-ylmethyl-naphthalen-1-ylmethyl)-2,3,4,5-tetrahydro-1H-benzo[b]azepin-3-yl]-propionamide hydrochloride], the IC50 is more than 54.8 µM.

In the case of `CN[C@@H](C)C(=O)N[C@H]1CCc2ccccc2N(Cc2ccc(CN3CCOCC3)c3ccccc23)C1=O` [Example 49o, (S)-2-Methylamino-N—[(S)-1-(4-morpholin-4-ylmethyl-naphthalen-1-ylmethyl)-2-oxo-2,3,4,5-tetrahydro-1H-benzo[b]azepin-3-yl]-propionamide hydrochloride], the IC50 is more than 54.8 µM.

`CN[C@@H](C)C(=O)N[C@H]1CCc2ccccc2N(Cc2ccc(CN3CCCCC3)c3ccccc23)C1=O` [Example 49q, (S)-2-Methylamino-N—[(S)-2-oxo-1-(4-piperidin-1-ylmethyl-naphthalen-1-ylmethyl)-2,3,4,5-tetrahydro-1H-benzo[b]azepin-3-yl]-propionamide hydrochloride] gave an IC50 of more than 54.8 µM.

With `CN[C@@H](C)C(=O)N[C@H]1CCc2ccccc2N(Cc2c(OC)ccc3cc(CN4CCNCC4)ccc23)C1=O` [Example 49r, (S)—N—[(S)-1-(2-Methoxy-6-piperazin-1-ylmethyl-naphthalen-1-ylmethyl)-2-oxo-2,3,4,5-tetrahydro-1H-benzo[b]azepin-3-yl]-2-methylamino-propionamide hydrochloride], the IC50 is more than 54.8 µM.

`CN[C@@H](C)C(=O)N[C@H]1CCc2ccccc2N(Cc2ccc(CN3CCNCC3)c3ccccc23)C1=O` [Example 49s, (S)-2-Methylamino-N—[(S)-2-oxo-1-(4-piperazin-1-ylmethyl-naphthalen-1-ylmethyl)-2,3,4,5-tetrahydro-1H-benzo[b]azepin-3-yl]-propionamide hydrochloride]: the IC50 is more than 54.8 µM.

In turn, `CN[C@@H](C)C(=O)N[C@H]1CCc2ccccc2N(Cc2cccc3cccc(C4CC4)c23)C1=O` [Example 49t, (S)—N—[(S)-1-(8-Cyclopropyl-naphthalen-1-ylmethyl)-2-oxo-2,3,4,5-tetrahydro-1H-benzo[b]azepin-3-yl]-2-methylamino-propionamide hydrochloride] displayed an IC50 of more than 54.8 µM.

With `CN[C@@H](C)C(=O)N[C@H]1CCc2ccccc2N(Cc2c(OC)ccc3cc(-c4ccccc4)ccc23)C1=O` [Example 49u, (S)—N—[(S)-1-(2-Methoxy-6-phenyl-naphthalen-1-ylmethyl)-2-oxo-2,3,4,5-tetrahydro-1H-benzo[b]azepin-3-yl]-2-methylamino-propionamide hydrochloride], the half-inhibitory concentration (IC50) is more than 54.8 µM.

Regarding `CN[C@@H](C)C(=O)N[C@H]1CCc2ccccc2N(Cc2c(OC)ccc3cc(C(=O)OC)ccc23)C1=O` [Example 50, 6-Methoxy-5-[(S)-3-((S)-2-methylamino-propionylamino)-2-oxo-2,3,4,5-tetrahydro-benzo[b]azepin-1-ylmethyl]-naphthalene-2-carboxylic acid methyl ester hydrochloride], the half-maximal inhibitory concentration (IC50) was more than 54.8 µM.

`CN[C@@H](C)C(=O)N[C@H]1CCc2ccccc2N(Cc2c(OC)ccc3cc(C(=O)O)ccc23)C1=O` [Example 51, 6-Methoxy-5-[(S)-3-((S)-2-methylamino-propionylamino)-2-oxo-2,3,4,5-tetrahydro-benzo[b]azepin-1-ylmethyl]-naphthalene-2-carboxylic acid] showed a concentration for half-maximal inhibition (IC50) of more than 54.8 µM.

Compound `CN[C@@H](C)C(=O)N[C@H]1CCc2ccccc2N(Cc2c(OC)ccc3cc(C(=O)NS(C)(=O)=O)ccc23)C1=O` [Example 52a, (S)—N—[(S)-1-(6-Methanesulfonylaminocarbonyl-2-methoxy-naphthalen-1-ylmethyl)-2-oxo-2,3,4,5-tetrahydro-1H-benzo[b]azepin-3-yl]-2-methylamino-propionamide] came in with a concentration for half-maximal inhibition (IC50) of 45 µM. This lies in the double-digit micromolar range.

The compound `CCCS(=O)(=O)NC(=O)c1cccc2c(CN3C(=O)[C@@H](NC(=O)[C@H](C)NC)CCc4ccccc43)c(OC)ccc12` [Example 52b, (S)—N—{(S)-1-[2-Methoxy-5-(propane-1-sulfonylaminocarbonyl)-naphthalen-1-ylmethyl]-2-oxo-2,3,4,5-tetrahydro-1H-benzo[b]azepin-3-yl}-2-methylamino-propionamide hydrochloride] yielded a 50% inhibitory concentration (IC50) of more than 54.8 µM.

As to `CN[C@@H](C)C(=O)N[C@H]1CCc2ccccc2N(Cc2c(OC)ccc3c(C(=O)NS(C)(=O)=O)cccc23)C1=O` [Example 52c, (S)—N—[(S)-1-(5-Methanesulfonylaminocarbonyl-2-methoxy-naphthalen-1-ylmethyl)-2-oxo-2,3,4,5-tetrahydro-1H-benzo[b]azepin-3-yl]-2-methylamino-propionamide hydrochloride], the half-maximal inhibitory concentration (IC50) is more than 54.8 µM.

Compound `CN[C@@H](C)C(=O)N[C@H]1CCc2ccccc2N(Cc2c(OC)ccc3c(C(=O)OC)cccc23)C1=O` [Example 52e, 6-Methoxy-5-[(S)-3-((S)-2-methylamino-propionylamino)-2-oxo-2,3,4,5-tetrahydro-benzo[b]azepin-1-ylmethyl]-naphthalene-1-carboxylic acid methyl ester hydrochloride] gave a concentration for half-maximal inhibition (IC50) of more than 54.8 µM.

`CN[C@@H](C)C(=O)N[C@H]1CCc2ccccc2N(Cc2cccc3c(C(=O)O)cccc23)C1=O` [Example 52f, 5-[(S)-3-((S)-2-Methylamino-propionylamino)-2-oxo-2,3,4,5-tetrahydro-benzo[b]azepin-1-ylmethyl]-naphthalene-1-carboxylic acid hydrochloride] yielded an IC50 of more than 54.8 µM.
